Results on 30 compounds are retold here after patent US12491185B2, “Inhibitors of mPTP” (NRG Therapeutics Ltd, priority 2023, dated 2025).

The subject of assay [1] is mPTP. The experiment in a line: mPTP activity assay in isolated rat brain mitochondria. As to conditions: fluorescence at 10 min timepoint. The assay is classed as biochemical. As to the method:
MPTP activity was measured in brain mitochondria freshly isolated from female Sprague Dawley (250 to 300 gram) rats. Anaesthetised rats were perfused in-situ with −40 ml cold Dulbecco's Phosphate Buffered Saline (DPBS), then brains dissected and transferred into 30 ml Isolation Buffer (225 mM mannitol, 75 mM sucrose, 1 mM EGTA, adjusted to pH 7.4 with 1M NaOH). The brain was minced using tweezers and a scalpel into −5 mm pieces then transferred into a 50 ml Potterton Dounce homogenization tube on ice containing 10 ml ice-cold isolation buffer (as above with addition of Complete Protease inhibitor; 1 tablet per 50 ml buffer). Homogenisation was carried out using a teflon pestle at 1800 rpm. The slurry was centrifuged at 2000 g for 10 min at 4° C., then the supernatant centrifuged at 12,000 g for 9 min. The pellet was resuspended with a dounce homogeniser in isolation buffer as above but with the addition of 0.02% digitonin, centrifuged at 12,000 g for 11 min and finally resuspended in 5 ml modified isolation buffer (as above but with EGTA reduced to 0.1 mM).
Test compounds were prepared in 384 well polypropylene assay plates as described above for the liver mitochondria assay. A stock mitochondria/Fluo5N assay solution was prepared in 5.6 ml assay buffer (120 mM mannitol, 40 mM MOPS, 5 mM KH2PO4, 60 mM KCl, 10 mM pyruvate, 2 mM malate, 2 mM MgCl2, 20 μM ADP, 1.26 μM oligomycin A, adjusted to pH 7.4) supplemented with Fluo5N pentapotassium salt (2 μM) and 1 ml mitochondria suspension, then transferred (15 μl) into the assay plate containing test compounds and incubated for 10 min at RT. Assay plates were then transferred to a FLIPR Tetra plate reader (Molecular Devices). Dye fluorescence was then measured every 3 sec for a total of 10 min.

In assay [2] the test system is mPTP. The experiment in a line: mPTP activity (Ca2+ retention) assay in isolated rat liver mitochondria. The assay is classed as biochemical. The following applies: examples tested by different contract research organisations, believed comparable. Summed up: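 pIC50 was taken from Fluo5N fluorescence at 10 min after a 75 μM CaCl2 bolus, scaled between DMSO (0%) and 5 μM cyclosporin A (100%). Compounds, ten half-log concentrations from 30 μM to 1 nM final, sat 10 min at RT with fresh female Sprague Dawley rat liver mitochondria energized by succinate plus rotenone.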

For the compound `O=C(NCC1(Cc2ccccc2)CCC1)c1cnn[nH]1` [Example 5, N-((1-benzylcyclobutyl)methyl)-1H-1,2,3-triazole-5-carboxamide], in the assay with mPTP [1], the “mPTP Rat brain pIC50” value is listed as 6.72. Moreover, the “mPTP Rat liver pIC50” value in the assay with mPTP [2] is 5.61.
Taken in the same sequence, the figures for `O=C(NCC1(Cc2ccc(F)cc2F)CCC1)c1ccc(=O)[nH]n1` [Example 175] were 6.81 and 5.92.
For `CC(CNC(=O)c1nccc(=O)[nH]1)(Cc1ccc(F)cc1)C1CC1` (single isomer, unassigned) [Example 251], the “mPTP Rat brain pIC50” value in the assay with mPTP [1] was found to be 7.06. Besides, the “mPTP Rat liver pIC50” value with mPTP [2] was found to be 6.21.
The like results for `Cn1nc(C(=O)NCC2(Cc3ccc(F)cc3F)CCCO2)[nH]c1=O` (single isomer, unassigned) [Example 230] were, in that order, 6.40 and 6.18.
Taken in the same sequence, the figures for `CC(CNC(=O)c1ncc(Cl)c(=O)[nH]1)(Cc1ccc(F)cc1)C1CC1` (single isomer, unassigned) [Example 264, 5-Chloro-N-[2-cyclopropyl-3-(4-fluorophenyl)-2-methylpropyl]-4-oxo-3H-pyrimidine-2-carboxamide] were 7.29 and 6.09.
Taken in the same sequence, the figures for `Cc1ccc(F)c(CC2(CNC(=O)c3nn(C)c(=O)[nH]3)CCC2)c1` [Example 83, N-((1-(2-Fluoro-5-methylbenzyl)cyclobutyl)methyl)-1-methyl-5-oxo-4,5-dihydro-1H-1,2,4-triazole-3-carboxamide] were 7.27 and 6.04.
On to `CC[C@H](CNC(=O)c1nn(C)c(=O)[nH]1)Cc1ccccc1` (single isomer, unassigned) [Example 54b], for which the “mPTP Rat brain pIC50” value in the assay on mPTP [1] was 7.94. The “mPTP Rat liver pIC50” value in the assay with mPTP [2] worked out at 6.82.
On to `Cn1nc(C(=O)NCC2(Cc3cccc(Cl)c3)CCC2)[nH]c1=O` [Example 79, N-((1-(3-Chlorobenzyl)cyclobutyl)methyl)-1-methyl-5-oxo-4,5-dihydro-1H-1,2,4-triazole-3-carboxamide], for which, in the assay with mPTP [1], the “mPTP Rat brain pIC50” value was determined as 7.59. Further, in the assay on mPTP [2], the “mPTP Rat liver pIC50” value turned out to be 6.39.
Taken in the same sequence, the figures for `Cn1nc(C(=O)NCC2(Cc3cccc(C#N)c3)CCC2)[nH]c1=O` [Example 100, N-((1-(3-Cyanobenzyl)cyclobutyl)methyl)-1-methyl-5-oxo-4,5-dihydro-1H-1,2,4-triazole-3-carboxamide] were 6.32 and 5.99.
Taken in the same sequence, the figures for `O=C(NCC1(Cc2ccccc2)CCC1)c1nc(=O)[nH][nH]1` [Example 8, N-((1-benzylcyclobutyl)methyl)-5-oxo-2,5-dihydro-1H-1,2,4-triazole-3-carboxamide] were 7.40 and 6.32.
The like results for `Cn1nc(C(=O)NCC2(Cc3ccc(F)cc3F)CCOCC2)[nH]c1=O` [Example 121] were, in that order, 7.1 and 6.67.
As to `Cn1nc(C(=O)NCC2(Cc3ccccc3Br)CCC2)[nH]c1=O` [Example 37, N-((1-(2-bromobenzyl)cyclobutyl)methyl)-1-methyl-5-oxo-4,5-dihydro-1H-1,2,4-triazole-3-carboxamide], the “mPTP Rat brain pIC50” value in the assay on mPTP [1] is given as 7.61. The “mPTP Rat liver pIC50” value in the assay with mPTP [2] was 5.79.
Taken in the same sequence, the figures for `CC(c1ccc(F)cc1F)C1(CNC(=O)c2nn(C)c(=O)[nH]2)CCC1` (stereo not drawn) [Example 52, N-((1-(1-(2,4-difluorophenyl)ethyl)cyclobutyl)methyl)-1-methyl-5-oxo-4,5-dihydro-1H-1,2,4-triazole-3-carboxamide] were 7.64 and 6.41.
The like results for `CC(O)C(C)(CNC(=O)c1nn(C)c(=O)[nH]1)Cc1ccccc1` (stereo not drawn) [Example 42, N-(2-benzyl-3-hydroxy-2-methylbutyl)-1-methyl-5-oxo-4,5-dihydro-1H-1,2,4-triazole-3-carboxamide] were, in that order, 6.26 and 5.27.
Taken in the same sequence, the figures for `CCC(F)(CNC(=O)c1nccc(=O)[nH]1)Cc1ccc(F)cc1F` (single isomer, unassigned) [Example 256, N-(2-(2,4-difluorobenzyl)-2-fluorobutyl)-6-oxo-1,6-dihydropyrimidine-2-carboxamide] were 6.13 and 5.09.
Consider `Cn1nc(C(=O)NCC2(Cc3c(F)cccc3F)CCC2)[nH]c1=O` [Example 21, N-((1-(2,6-difluorobenzyl)cyclobutyl)methyl)-1-methyl-5-oxo-4,5-dihydro-1H-1,2,4-triazole-3-carboxamide], for which, in the assay on mPTP [1], the “mPTP Rat brain pIC50” value is 7.63. In the assay on mPTP [2], the “mPTP Rat liver pIC50” value amounted to 6.09.
Take `CC(NC(=O)c1nn(C)c(=O)[nH]1)C(C)(C)Cc1ccccc1` (single isomer, unassigned) [Example 39B, N-(3,3-dimethyl-4-phenylbutan-2-yl)-1-methyl-5-oxo-4,5-dihydro-1H-1,2,4-triazole-3-carboxamide]: in the assay on mPTP [1], the “mPTP Rat brain pIC50” value is reported as 7.62. Further, the “mPTP Rat liver pIC50” value in the assay on mPTP [2] was 6.56.
With `O=C(NCC1(Cc2ccc(F)cc2)CCC1)c1cncc(O)n1` [Example 50, N-((1-(4-fluorobenzyl)cyclobutyl)methyl)-6-hydroxypyrazine-2-carboxamide], the “mPTP Rat brain pIC50” value with mPTP [1] came out at 7.23. In the assay on mPTP [2], the “mPTP Rat liver pIC50” value is 4.66.
Taken in the same sequence, the figures for `Cn1nc(C(=O)NCC(Cc2ccccc2)C2CC2)[nH]c1=O` (stereo not drawn) [Example 53, N-(2-cyclopropyl-3-phenylpropyl)-1-methyl-5-oxo-4,5-dihydro-1H-1,2,4-triazole-3-carboxamide] were 7.46 and 6.46.
For the compound `O=C(NCC1(Cc2ccc(F)cc2F)CC12CC2)c1nccc(=O)[nH]1` (single isomer, unassigned) [Example 236], the “mPTP Rat brain pIC50” value in the assay with mPTP [1] turned out to be 7.18. Also, the “mPTP Rat liver pIC50” value in the assay on mPTP [2] was 6.11.
Taken in the same sequence, the figures for `COC(CNC(=O)c1nn(C)c(=O)[nH]1)Cc1ccccc1` (stereo not drawn) [Example 43, N-(2-methoxy-3-phenylpropyl)-1-methyl-5-oxo-4,5-dihydro-1H-1,2,4-triazole-3-carboxamide] were 6.81 and 5.03.
The like results for `O=C(NCC1(Cc2cc(F)ccc2F)CCC1)c1cncc(=O)[nH]1` [Example 174] were, in that order, 7.74 and 6.29.
Taken in the same sequence, the figures for `O=C(NCC1(Cc2cccc(F)c2)CCC1)c1ccc(=O)[nH]n1` [Example 177] were 6.65 and 5.85.
As for `CC(CNC(=O)c1ncc(F)c(=O)[nH]1)(Cc1ccc(F)cc1F)C1CC1` (single isomer, unassigned) [Example 258, N-[2-cyclopropyl-3-(2,4-difluorophenyl)-2-methylpropyl]-5-fluoro-4-oxo-3H-pyrimidine-2-carboxamide], in the assay with mPTP [1], the “mPTP Rat brain pIC50” value is 7.71. Also, the “mPTP Rat liver pIC50” value with mPTP [2] is 6.39.
With `O=C(NCC1(Cc2ccc(F)cc2F)CC12CC2)c1noc(=O)[nH]1` (single isomer, unassigned) [Example 234], the “mPTP Rat brain pIC50” value with mPTP [1] is reported as 6.30. In addition, the “mPTP Rat liver pIC50” value with mPTP [2] is on record as 5.24.
The like results for `CC(CNC(=O)c1cc(O)no1)(Cc1ccc(F)cc1F)C1CC1` (single isomer, unassigned) [Example 270] were, in that order, 6.51 and 5.39.
Taken in the same sequence, the figures for `Cn1nc(C(=O)NCC2(Cc3ccccc3Cl)CCC2)[nH]c1=O` [Example 30, N-((1-(2-chlorobenzyl)cyclobutyl)methyl)-1-methyl-5-oxo-4,5-dihydro-1H-1,2,4-triazole-3-carboxamide] were 7.63 and 6.20.
Taken in the same sequence, the figures for `O=C(NCC1(Cc2cccc(F)c2F)CCC1)c1cncc(=O)[nH]1` [Example 17, N-((1-(2,3-difluorobenzyl)cyclobutyl)methyl)-6-oxo-1,6-dihydropyrazine-2-carboxamide] were 6.96 and 6.05.
For the compound `Cn1nc(C(=O)NCC2(Cc3ccc(F)cc3F)CCCC2)[nH]c1=O` [Example 92, N-((1-(2,4-Difluorobenzyl)cyclopentyl)methyl)-1-methyl-5-oxo-4,5-dihydro-1H-1,2,4-triazole-3-carboxamide], the “mPTP Rat brain pIC50” value with mPTP [1] amounted to 7.54. The “mPTP Rat liver pIC50” value in the assay on mPTP [2] turned out to be 6.31.
Taken in the same sequence, the figures for `Cn1nc(C(=O)NCC2(Cc3cc(F)cc(F)c3)CCC2)[nH]c1=O` [Example 116, N-((1-(3,5-difluorobenzyl)cyclobutyl)methyl)-1-methyl-5-oxo-4,5-dihydro-1H-1,2,4-triazole-3-carboxamide] were 6.45 and 6.04.
